Each structure is given as a SMILES string.

Data on 28 compounds can be found in ChEMBL document CHEMBL4387742, “Naturally occurring biflavonoids with amyloid β aggregation inhibitory activity for development of anti-Alzheimer agents” (Bioorg Med Chem Lett, 2019).

The target in experiment [1] is T1, Amyloid-beta precursor protein (Homo sapiens, UniProt P05067). As to the kind of experiment: Inhibition of human amyloid beta (1 to 40) assessed as reduction in aggregation measured after 24 hrs by ThT fluorescence assay.
T1 sequence (P05067 whole entry): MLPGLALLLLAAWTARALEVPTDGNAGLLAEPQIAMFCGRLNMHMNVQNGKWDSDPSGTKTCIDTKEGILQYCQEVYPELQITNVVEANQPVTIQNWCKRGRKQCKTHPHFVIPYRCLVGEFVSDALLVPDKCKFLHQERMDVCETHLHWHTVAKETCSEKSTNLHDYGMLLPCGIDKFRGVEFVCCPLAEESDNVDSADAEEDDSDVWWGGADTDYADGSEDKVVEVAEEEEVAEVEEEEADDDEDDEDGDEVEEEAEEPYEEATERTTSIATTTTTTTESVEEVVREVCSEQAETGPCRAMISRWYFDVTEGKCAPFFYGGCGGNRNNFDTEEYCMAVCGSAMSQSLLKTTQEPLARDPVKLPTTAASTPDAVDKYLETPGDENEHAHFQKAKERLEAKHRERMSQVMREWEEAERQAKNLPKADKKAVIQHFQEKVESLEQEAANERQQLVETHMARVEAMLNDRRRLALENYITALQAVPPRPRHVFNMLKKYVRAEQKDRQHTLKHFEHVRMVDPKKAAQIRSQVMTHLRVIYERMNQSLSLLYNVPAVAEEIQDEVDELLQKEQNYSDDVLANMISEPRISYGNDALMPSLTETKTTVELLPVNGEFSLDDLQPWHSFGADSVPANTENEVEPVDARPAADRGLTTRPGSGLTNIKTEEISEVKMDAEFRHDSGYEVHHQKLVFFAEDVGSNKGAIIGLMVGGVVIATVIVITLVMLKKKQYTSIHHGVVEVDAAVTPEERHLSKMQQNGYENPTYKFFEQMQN
In experiment [2] the target is T1, Amyloid-beta precursor protein. As to the kind of experiment: Inhibition of amyloid beta (1 to 42) (unknown origin) assessed as reduction in aggregation at 50 uM by ThT fluorescence assay.

On to `COc1ccc(-c2cc(=O)c3c(O)cc(OC)c(-c4c(OC)cc(O)c5c(=O)cc(-c6ccc(OC)cc6)oc45)c3o2)cc1`, for which the IC50 in experiment [1] is > 50 µM. Still for that read-out and setting: in the case of `COc1ccc(-c2cc(=O)c3c(O)cc(OC)c(-c4cc(-c5cc(=O)c6c(O)cc(OC)cc6o5)ccc4OC)c3o2)cc1` it was > 50 µM; in that of `COc1ccc(-c2cc(=O)c3c(O)cc(OC)c(-c4c(OC)cc(O)c5c(=O)cc(-c6ccc(O)cc6)oc45)c3o2)cc1`, 45.6 µM; in that of `COc1cc2oc(-c3ccc(O)cc3)cc(=O)c2c(O)c1-c1c(O)cc(O)c2c(=O)cc(-c3ccc(O)cc3)oc12`, 13 µM. Same read-out and setting: as for `COc1ccc(-c2cc(=O)c3c(O)cc(O)c(-c4cc(-c5cc(=O)c6c(O)cc(O)cc6o5)ccc4OC)c3o2)cc1` [ISOGINKGETIN], the figure is 10.1 µM; as for `COc1ccc(-c2cc(=O)c3c(O)cc(O)cc3o2)cc1-c1c(O)cc2oc(-c3ccc(O)cc3)cc(=O)c2c1O`, > 50 µM. Turning to `COc1cc2oc(-c3ccc(O)cc3)cc(=O)c2c(O)c1-c1c(OC)cc(O)c2c(=O)cc(-c3ccc(O)cc3)oc12`, the IC50 in experiment [1] came to 32.8 µM. `O=c1cc(-c2ccc(Oc3c(O)cc4oc(-c5ccc(O)cc5)cc(=O)c4c3O)cc2)oc2cc(O)cc(O)c12` [HINOKIFLAVONE]: the IC50 in experiment [1] was 9.5 µM. On the same count and under the same terms, as for `COc1ccc(-c2cc(=O)c3c(O)cc(OC)c(-c4cc(-c5cc(=O)c6c(O)cc(O)cc6o5)ccc4O)c3o2)cc1` [7'',4'''-dimethylamentoflavone], the figure is 20.1 µM. For `COc1cc(O)c2c(=O)cc(-c3ccc(O)cc3)oc2c1-c1c(OC)cc(O)c2c(=O)cc(-c3ccc(O)cc3)oc12`, the concentration for half-maximal inhibition (IC50) in experiment [1] came to 17.3 µM. On the same count and under the same terms, as for `COc1ccc(-c2cc(=O)c3c(O)cc(OC)c(-c4cc(-c5cc(=O)c6c(O)cc(OC)cc6o5)ccc4O)c3o2)cc1` [HEVEAFLAVONE], the figure is > 50 µM; as for `COc1cc(O)c2c(=O)cc(-c3ccc(OC)c(-c4c(O)cc(O)c5c(=O)cc(-c6ccc(O)cc6)oc45)c3)oc2c1` [GINKGETIN], 13.2 µM; as for `COc1ccc(-c2cc(=O)c3c(O)cc(O)cc3o2)cc1-c1c(O)cc(O)c2c(=O)cc(-c3ccc(O)cc3)oc12` [BILOBETIN], 4.7 µM. Same read-out and setting: in the case of `COc1cc2oc(-c3ccc(O)cc3)cc(=O)c2c(O)c1-c1cc(-c2cc(=O)c3c(O)cc(O)cc3o2)ccc1O` it was 21.3 µM; in that of `COc1cc(O)c2c(=O)cc(-c3ccc(O)c(-c4c(O)cc(O)c5c(=O)cc(-c6ccc(O)cc6)oc45)c3)oc2c1` [SEQUOIAFLAVONE], 4.9 µM. The same measure, in the same setting: in the case of `COc1cc(O)c2c(=O)cc(-c3ccc(OC)c(-c4c(OC)cc(O)c5c(=O)cc(-c6ccc(O)cc6)oc45)c3)oc2c1` it was > 50 µM; in that of `COc1ccc(-c2cc(=O)c3c(O)cc(O)cc3o2)cc1-c1c(OC)cc(O)c2c(=O)cc(-c3ccc(O)cc3)oc12`, > 50 µM; in that of `O=c1cc(-c2ccc(O)cc2)oc2cc(O)cc(O)c12` [APIGENIN], > 50 µM. `COc1ccc(-c2cc(=O)c3c(O)cc(O)c(-c4c(OC)cc5oc(-c6ccc(O)cc6)cc(=O)c5c4O)c3o2)cc1`: the IC50 in experiment [1] was 15.9 µM. Same read-out and setting: in the case of `COc1cc2oc(-c3ccc(O)cc3)cc(=O)c2c(O)c1Oc1ccc(-c2cc(=O)c3c(O)cc(O)cc3o2)cc1` it was > 50 µM. For the compound `O=c1cc(-c2ccc(O)c(-c3c(O)cc(O)c4c(=O)cc(-c5ccc(O)cc5)oc34)c2)oc2cc(O)cc(O)c12` [AMENTOFLAVONE], the concentration for half-maximal inhibition (IC50) in experiment [1] stood at 4.8 µM. For the compound `COc1ccc(-c2cc(=O)c3c(O)cc(OC)c(-c4cc(-c5cc(=O)c6c(O)cc(O)cc6o5)ccc4OC)c3o2)cc1` [KAYAFLAVONE], the 50% inhibitory concentration (IC50) in experiment [1] was > 50 µM. Turning to `COc1ccc(-c2cc(=O)c3c(O)cc(O)c(-c4cc(-c5cc(=O)c6c(O)cc(OC)cc6o5)ccc4OC)c3o2)cc1` [SCIADOPITISIN], the inhibition in experiment [2] worked out at 44%. Besides, the IC50 in experiment [1] was > 50 µM. Regarding `COc1ccc(-c2cc(=O)c3c(O)cc(OC)c(-c4c(OC)cc5oc(-c6ccc(O)cc6)cc(=O)c5c4O)c3o2)cc1`, the IC50 in experiment [1] is > 50 µM.

For the compound `COc1cc(O)c2c(=O)cc(-c3ccc(O)cc3)oc2c1-c1cc(-c2cc(=O)c3c(O)cc(O)cc3o2)ccc1O` [SOTETSUFLAVONE], in experiment [1], the concentration for half-maximal inhibition (IC50) is > 50 µM. Turning to `COc1ccc(-c2cc(=O)c3c(O)c(Oc4ccc(-c5cc(=O)c6c(O)cc(O)cc6o5)cc4)c(OC)cc3o2)cc1`, the IC50 in experiment [1] was > 50 µM. Still for that read-out and setting: in the case of `COc1ccc(-c2cc(=O)c3c(O)cc(O)c(-c4cc(-c5cc(=O)c6c(O)cc(O)cc6o5)ccc4O)c3o2)cc1` [PODOCARPUSFLAVONE A] it was 4.9 µM; in that of `COc1ccc(-c2cc(=O)c3c(O)c(Oc4ccc(-c5cc(=O)c6c(O)cc(O)cc6o5)cc4)c(O)cc3o2)cc1`, > 50 µM.

As usually defined, the IC50 is the point on the concentration scale where inhibition reaches its midpoint. In general, inhibition refers to how much of the control response was suppressed.
